Experimental data taken from US10175228B2, “Method of using transmembrane channel-like protein 6 (TMC6) protein to identify substances affecting salty taste” (priority 2016, dated 2019).

Target: T1, mouse TMC6 protein (Mus musculus, UniProt Q7TN60, A788T)
T1 construct: expressed in transfected cells; host or cells: CHO-K1
T1 sequence (Q7TN60 1-810 A788T): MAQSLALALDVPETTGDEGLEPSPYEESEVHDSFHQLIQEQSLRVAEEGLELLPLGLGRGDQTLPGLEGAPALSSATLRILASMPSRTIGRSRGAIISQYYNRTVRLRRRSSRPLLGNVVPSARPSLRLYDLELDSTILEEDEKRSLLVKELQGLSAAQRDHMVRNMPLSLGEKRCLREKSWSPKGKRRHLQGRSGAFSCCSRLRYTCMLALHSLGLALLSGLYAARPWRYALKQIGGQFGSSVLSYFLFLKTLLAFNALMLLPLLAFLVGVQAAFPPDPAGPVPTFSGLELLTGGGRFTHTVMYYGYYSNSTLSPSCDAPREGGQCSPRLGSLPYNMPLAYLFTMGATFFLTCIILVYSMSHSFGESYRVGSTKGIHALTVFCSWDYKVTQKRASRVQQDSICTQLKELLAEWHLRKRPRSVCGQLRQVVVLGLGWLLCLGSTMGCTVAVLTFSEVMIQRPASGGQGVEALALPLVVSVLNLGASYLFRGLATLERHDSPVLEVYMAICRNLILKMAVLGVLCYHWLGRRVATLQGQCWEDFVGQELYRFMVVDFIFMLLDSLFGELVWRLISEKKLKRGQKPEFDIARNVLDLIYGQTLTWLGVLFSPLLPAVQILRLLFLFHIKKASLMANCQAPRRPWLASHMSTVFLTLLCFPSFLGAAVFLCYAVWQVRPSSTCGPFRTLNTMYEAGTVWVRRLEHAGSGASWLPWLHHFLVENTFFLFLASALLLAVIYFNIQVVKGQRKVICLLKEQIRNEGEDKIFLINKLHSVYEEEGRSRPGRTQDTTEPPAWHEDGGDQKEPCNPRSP
Assay: Calcium imaging (YC2.60 FRET) of CHO-K1 cells expressing the mouse TMC6 gene
Assay type: cell-based
Method: CHO-K1 cells were transfected with TMC6-pcDNA3.1 or pcDNA3.1 in combination with YC2.60-pcDNA, to prepare TMC6-expressing cells (cells expressing the mouse TMC6 gene and the YC2.60 gene) and control cells (cells expressing the YC2.60 gene). The prepared cells were stimulated, and activation of the cells was measured. The procedure was as follows.
That is, first, CHO-K1 cells (ATCC) were inoculated into a culture dish having a diameter of 60 mm while adjusting the number of the cells to obtain 60% confluence, and cultured for 8 hr. As the medium, 5 mL of Ham's F-12K (Kaighn's) (Life Technologies) containing 10% fetal bovine serum (Life Technologies) was used. A 15 μL aliquot of FuGENE 6 (Promega) was added to 235 μL of Opti-MEM (Thermo Fisher Scientific), and incubated for 5 min at a room temperature. Then, 0.625 μg of TMC6-pcDNA3.1 and 2.5 μg of YC2.60-pcDNA were further added thereto, and incubated for 15 min at a room temperature. Then, the whole of the resultant mixture was dropped into the culture broth of the CHO-K1 cells, and the culture broth was mildly stirred. Then, the cells were further cultured for 18 hr under a condition of 5% CO2 at 37° C., to obtain the TMC6-expressing cells. Similarly, the control cells were obtained through transfection using pcDNA3.1 instead of TMC6-pcDNA3.1.
After the cultivation, the culture broth was removed. A low-concentration NaCl solution (27 mM NaCl, 1 mM KCl, 0.4 mM CaCl2, 0.2 mM MgCl2, 2 mM Hepes (pH7.3), 1 mM NaHCO3, 2 mM glucose, 2 mM sodium pyruvate, and 112 mM NMDG-Cl) was added to the culture dish, incubation was carried out statically for 5 min, and then, stimulation and observation of cells were started. First, the low-concentration NaCl solution was perfused for approximately 80 sec, to provide a ground state. Then, a high-concentration NaCl solution (135 mM NaCl, 1 mM KCl, 0.4 mM CaCl2, 0.2 mM MgCl2, 2 mM Hepes (pH7.3), 1 mM NaHCO3, 2 mM glucose, and 2 mM sodium pyruvate) was perfused instead of the low-concentration NaCl solution for approximately 60 sec, to stimulate the cells. […]

[Cl-].[Na+] [NaCl, sodium chloride]
relative FRET value (YFP/CFP) of the ROI-1 cell (one typical TMC6-expressing cell, stimulation with high-concentration NaCl solution (135 mM NaCl), FIG. 13C): approximately 1.2
change of YFP/CFP value (intracellular calcium concentration, cell activation) (stimulation with high-concentration NaCl solution (135 mM NaCl) for approx. 60 sec after 27 mM NaCl ground state): increase
